Publication PMC6017749, “Exploring N-acyl-4-azatetracyclo[5.3.2.0^2,6.0^8,10]dodec-11-enes as 11β-HSD1 Inhibitors” (Molecules : A Journal of Synthetic Chemistry and Natural …, 2018)
Read-outs that look alike come from different tables or passages of the source.

Tests used:
human 11β-HSD2 [1] = target: T1, human 11β-HSD2 (Homo sapiens, UniProt P80365); assay: Cellular 11β-HSD2 enzyme inhibition assay (HEK293 stably transfected); assay type: cell-based; details: HEK293, 10 µM, HEK293 transfected with human 11β-HSD2; read-out: HEK hHSD2 % inh at 10 µM
T1 construct: stably transfected with the full-length gene coding for human 11β-HSD2; expressed in transfected cells; host or cells: HEK293
T1 sequence (P80365 1-405): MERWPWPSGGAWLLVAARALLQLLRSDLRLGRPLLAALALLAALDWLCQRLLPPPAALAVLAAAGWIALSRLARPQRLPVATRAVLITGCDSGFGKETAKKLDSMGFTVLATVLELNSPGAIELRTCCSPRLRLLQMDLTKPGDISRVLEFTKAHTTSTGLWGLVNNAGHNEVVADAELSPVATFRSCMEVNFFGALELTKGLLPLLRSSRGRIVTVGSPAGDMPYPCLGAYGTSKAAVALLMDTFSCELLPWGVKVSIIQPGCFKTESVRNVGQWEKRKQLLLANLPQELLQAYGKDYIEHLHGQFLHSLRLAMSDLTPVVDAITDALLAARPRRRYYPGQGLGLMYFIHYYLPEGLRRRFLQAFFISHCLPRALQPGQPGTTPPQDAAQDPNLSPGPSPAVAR
Protocol: (§1) Selectivity over 11β-HSD2 was also assessed in a cell-based assay using the same methodology as before (HEK293 stably transfected with the 11β-HSD2 gene). […] Finally, metabolic stability was determined using HLM, which are widely used to predict the degree of primary metabolic clearance in the liver. Each compound was incubated over 30 min with HLM and the percentage of remaining compound after this incubation period was determined by calculating compound concentration after and before by LC/MS.
For measurement of inhibition of 11β-HSD2, HEK293 cells stably transfected with the full-length gene coding for human 11β-HSD2 were used. The protocol was the same as for the cellular 11β-HSD1 enzyme inhibition assay, only changing the substrate, this time cortisol, and the concentrations of the tested compounds, 10, 1, and 0.1 µM. Reported values are the average of 1–3 measurements.

human 11β-HSD1 [2] = target: T2, human 11β-HSD1 (Homo sapiens, UniProt P28845); assay: Cellular 11β-HSD1 enzyme inhibition assay (HEK293 stably transfected, cortisol by LC/MS); assay type: cell-based; details: for inhibition at 10 µM: HEK293 transfected with human 11β-HSD1, read-out: HEK hHSD1 % inh at 10 µM
T2 construct: The assay uses human liver microsomes (HLM), where the enzyme is expressed; tissue Celsis In-vitro Technologies; host or cells: mixed sex human liver microsomes
Protocol: Those compounds with submicromolar IC50 values (4, 6, 8, 9 and 16) were further evaluated in terms of cellular potency, selectivity over 11β-HSD2, and metabolic stability as follows (Table 2, 5th, 6th, and 7th column, respectively). Cellular potency was assessed using Human Embryonic Kidney 293 (HEK293) cells stably transfected with the 11β-HSD1 gene. Cells were incubated with substrate (cortisone) and percentage of inhibition was determined by measuring the conversion of cortisone to cortisol by LC/MS. The results were in line with the previous results obtained in the microsomal assay.
The cellular 11β-HSD1 enzyme inhibition assay was performed using HEK293 cells stably transfected with the human 11β-HSD1 gene. Cells were incubated with substrate (cortisone) and product (cortisol) was determined by LC/MS. Cells were plated at 2 × 10^4 cells/well in a 96-well poly-D-lysine coated tissue culture microplate (Greiner Bio-one, Monroe, NC, USA) and incubated overnight at 37 °C in 5% CO2 […]. Compounds to be tested were solubilized in 100% dimethylsulfoxide (DMSO) at 10 mM and serially diluted in water and 10% DMSO to final concentration of 10 µM in 10% DMSO. Then 10 µL of each test dilution and 10 µL of 10% DMSO (for low and high control) were dispensed into the well of a new 96-well microplate (Greiner Bio-one). Medium was removed from the cell assay plate and 100 µL of Dulbecco’s Modified Eagle’s Medium DMEM solution (containing 1% penicillin, 1% streptomycin and 300 nM cortisone) added to each well. Cells were incubated for 2 h at 37 °C in 5% CO2 […]. Following incubation, medium was removed from each well into an Eppendorf containing 500 µL of ethyl acetate, mixed by vortex and incubated at r.t. for 5 min. A calibration curve of known concentrations of cortisol in assay medium was also set up and added to 500 µL of ethyl acetate, vortexed and incubated as above. The supernatant of each Eppendorf was removed to a 96-deep-well plate and dried down under […] at 65 °C. Each well was solubilized in 100 µL 70:30 H2O:acetonitrile (ACN) and removed to a 96-well V-bottomed plate for LC/MS analysis. Separation was carried out on a Sunfire 150 × 2.1 mm, […] column using a H2O:ACN gradient profile. Typical retention times were 2.71 min for cortisol and 2.80 min for cortisone. The peak area was calculated and the concentration of each compound determined from the calibration curve. Reported values are the average of 1–3 measurements.

human 11β-HSD2 [3] = target: T1, human 11β-HSD2; details: cited from earlier work; for IC50: read-out: HEK hHSD2 IC50
human 11β-HSD1 [4] = target: T2, human 11β-HSD1; assay: 11β-HSD1 enzyme inhibition assay in human liver microsomes (3H-cortisone to 3H-cortisol, SPA); assay type: biochemical; details: human liver microsomes; for inhibition at 10 µM: relative to no inhibitor control, read-out: hHSD1 % inh at 10 µM; for IC50: read-out: hHSD1 IC50
Protocol: A preliminary screen was performed using a human microsome assay with compounds at 10 µM in order to assess their potential inhibition of the target enzyme (Table 2). Percentage of inhibition was determined by measuring the conversion of ^3H-cortisone to ^3H-cortisol by capturing liberated ^3H-cortisol on anti-cortisol (HyTest Ltd., Turku, Finland)-coated scintillation proximity assay beads. The assay uses human liver microsomes (HLM), where the enzyme is expressed, and NADPH as the cofactor needed by the enzyme. Eight of the thirteen new compounds presented 100% inhibition of the human 11β-HSD1 in this single concentration assay, so dose-response curves were performed to get their IC50 values.
11β-HSD1 activity was determined in mixed sex, human liver microsomes (HLM, Celsis In-vitro Technologies) by measuring the conversion of ^3H-cortisone to ^3H-cortisol. Percentage inhibition was determined relative to a no inhibitor control. An amount of 5 μg of HLM were pre-incubated at 37 °C for 15 min with inhibitor and 1 mM NADPH in a final volume of 90 μL Krebs buffer. 10 μL of 200 nM ^3H-cortisone was then added followed by incubation at 37 °C for a further 30 min. The assay was terminated by rapid freezing on dry ice and ^3H-cortisone to ^3H-cortisol conversion determined in 50 μL of the defrosted reaction by capturing liberated ^3H-cortisol on anti-cortisol (HyTest Ltd)-coated scintillation proximity assay beads (protein A-coated YSi, GE Healthcare). Reported values are the average of 1–3 measurements. A nanomolar 11β-HSD1 inhibitor, UE2316, was added as a positive control within in each set of assays.

[5] = design: method as in PMID 21471376, PMID 26306982; details: remaining compound after 30-min incubation in human liver microsomes; cited from earlier work
[6] = Microsomal stability assay in human liver microsomes; assay type: in vitro ADME; details: remaining compound after 30-min incubation in HLM
Protocol: as §1
The microsomal stability of each compound was determined using human liver microsomes (HLM, Celsis In-vitro Technologies, Baltimore, MD, USA). Microsomes were thawed and diluted to a concentration of 2 mg/mL in 50 mM sodium phosphate buffer pH 7.4. Each compound was diluted in 4 mM NADPH (made in the phosphate buffer above) to a concentration of 10 µM. Two identical incubation plates were prepared to act as a 0 min and a 30 min time point assay. 30 µL of each compound dilution was added in duplicate to the wells of a U-bottom 96-well plate and warmed at 37 °C for approximately 5 min. Verapamil, lidocaine, and propranolol at 10 µM concentration were utilized as reference compounds in this experiment. Microsomes were also pre-warmed at 37 °C before the addition of 30 µL to each well of the plate resulting in a final concentration of 1 mg/mL. The reaction was terminated at the appropriate time point (0 or 30 min) by addition of 60 µL of ice-cold 0.3 M trichloroacetic acid (TCA) per well. The plates were centrifuged for 10 min at 112× g and the supernatant fraction transferred to a fresh U-bottom 96-well plate. Plates were sealed and frozen at −20 °C prior to MS analysis. LC-MS/MS was used to quantify the peak area response of each compound before and after incubation with HLM using MS tune settings established and validated for each compound. These peak intensity measurements were used to calculate the percentage remaining after incubation with HLM for each hit compound. Reported values are the average of 1–3 measurements.

mHSD1 = tested on: mHSD1; design: method as in PMID 21471376, PMID 26306982; details: murine enzyme; cited from earlier work
[7] = design: method as in PMID 21471376, PMID 26306982; details: remaining compound in mouse liver microsomes; cited from earlier work
[8] = tested on: Senescence-Accelerated Mouse Prone 8 (SAMP8); design: method as in PMID 28818766; details: 12-month-old SAMP8 mice, four weeks; cited from earlier work
human 11β-HSD1 [9] = target: T2, human 11β-HSD1; design: method as in PMID 21471376, PMID 26306982; details: previous inhibitors of the group; read-out: hHSD1 IC50; cited from earlier work
[10] = HEK293 transfected with human 11β-HSD2

T2 sequence (P28845 whole entry): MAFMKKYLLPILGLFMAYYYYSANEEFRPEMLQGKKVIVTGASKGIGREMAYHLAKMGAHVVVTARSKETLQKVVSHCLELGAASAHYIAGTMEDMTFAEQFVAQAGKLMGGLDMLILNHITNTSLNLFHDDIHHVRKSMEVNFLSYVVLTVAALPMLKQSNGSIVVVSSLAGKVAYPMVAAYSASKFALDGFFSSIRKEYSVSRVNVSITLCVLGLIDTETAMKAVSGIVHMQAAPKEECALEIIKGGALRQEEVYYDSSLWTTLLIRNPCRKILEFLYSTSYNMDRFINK

inhibition at 10 µM (human 11β-HSD2 [1])	inhibition at 10 µM (human 11β-HSD1 [2])	inhibition at 10 µM (human 11β-HSD1 [4])	IC50 (human 11β-HSD1 [4])	HLM % Parent [6]	HEK hHSD1 % inh at 10 µM (human 11β-HSD1 [2]; HEK293 transfected with human 11β-HSD1)	melting point	SMILES	selectivity index against 11β-HSD2 isoform (human 11β-HSD2 [3]; 11β-HSD2 versus 11β-HSD1)	IC50 (human 11β-HSD2 [3]; [10])	HLM % Parent [5]	IC50 (mHSD1)	MLM % Parent [7]	effect on memory deficits [8]	neuroprotective action [8]	IC50 (human 11β-HSD1 [9])	HEK hHSD2 % inh 10 µM (human 11β-HSD2 [3]; 10 µM, HEK293 transfected with human 11β-HSD2)
69%	100%	100%	19 nM	27%	–	–	O=C(C1CCCCC1)N1CC2C3C=CC(C4CC34)C2C1 (stereo not drawn) [Compound 2]	at least 50 fold	1000 to 10000 nM	27%	–	–	–	–	–	–
–	–	–	–	–	–	–	O=C(C1CCCCC1)N1CC2C3CCC(C4CC34)C2C1 (stereo not drawn) [Compound 3]	–	100 to 1000 nM	94%	81 nM	93%	prevented memory deficits	displayed a neuroprotective action through reduction of neuroinflammation and oxidative stress	29 nM	–
–	–	–	–	–	–	–	O=C(NC1C2CC3CC(C2)CC1C3)C1CCCCC1 (stereo not drawn) [Compound 1]	–	–	74%	–	–	–	–	–	88%
86%	100%	100%	45 nM	13%	complete inhibition	186 to 187 °C	Nc1c(Cl)cc(C(=O)N2CC3C4C=CC(C5CC45)C3C2)cc1Cl (stereo not drawn) [Compound 8, (4-Amino-3,5-dichlorophenyl)(4-azatetracyclo[5.3.2. 0^2,6.0^8,10]dodec-11-en-4-yl)methanone]	–	–	–	–	–	–	–	–	–
